# Test system: DOHH2 cells
# Experiment: Cell proliferation assay (MTS) in DOHH2 cells, mechanism-based assay for BTK inhibition
# Conditions: Homo sapiens, DOHH-2, 120 h incubation, 5000 cells/well
# In short: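 DOHH2 cells (5000/well) were plated in RPMI-1640 with 10% FBS, left overnight, then exposed 120 h at 37° C, 5% CO2 to compound at 1.5–10000 nM final (nine levels). Proliferation was read by MTS, incubated exactly 2 h and stopped with SDS, as a measure of cellular BTK inhibition.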
row,Compound,IC50
1,"C=CC(=O)N1CCC[C@H](c2cn(-c3ccc(Oc4cccc(F)c4)cc3)c3c(N)n[nH]c(=O)c23)C1 [Example 36, (R)-3-(1-acryloylpiperidin-3-yl)-7-amino-1-(4-(3-fluorophenoxy)phenyl)-1,5-dihydro-4H-pyrrolo [2,3-d]pyridazin-4-one]",585 nM
2,"C=CC(=O)N1CCC[C@H](c2nn(-c3ccc(Oc4cccc(F)c4F)cc3)c3c(N)n[nH]c(=O)c23)C1 [Example 62, (S)-3-(1-acryloylpiperidin-3-yl)-7-amino-1-(4-(2,3-difluorophenoxy)phenyl)-1,5-dihydro-4H-pyrazolo[3,4-d]pyridazin-4-one]",147 nM
3,"C=CC(=O)N1CCC[C@@H](c2cn(-c3ccc(Oc4cccc(F)c4F)cc3)c3c(N)n[nH]c(=O)c23)C1 [Example 32, (S)-3-(1-acryloylpiperidin-3-yl)-7-amino-1-(4-(2,3-difluorophenoxy)phenyl)-1,5-dihydro-4H-pyrrolo[2,3-d]pyridazin-4-one]",58 nM
4,"CN(C)C/C=C/C(=O)N1CC[C@@H](c2cn(-c3ccc(Oc4ccccc4F)cc3)c3c(N)n[nH]c(=O)c23)C1 [Example 94, (S,E)-7-amino-3-(1-(4-(dimethylamino)but-2-enoyl)pyrrolidin-3-yl)-1-(4-(2-fluorophenoxy)phenyl)-1,5-dihydro-4H-pyrrolo[2,3-d]pyridazin-4-one]",247 nM
5,"C=CC(=O)N1CC[C@@H](c2nn(-c3ccc(Oc4ccccc4F)cc3)c3c(N)n[nH]c(=O)c23)C1 [Example 41, (R)-3-(1-acryloylpyrrolidin-3-yl)-7-amino-1-(4-(2-fluorophenoxy)phenyl)-1,5-dihydro-4H-pyrazolo[3,4-d]pyridazin-4-one]",146 nM
6,"CC#CC(=O)N1CC[C@@H](c2cn(-c3ccc(Oc4c(F)cccc4F)cc3)c3c(N)n[nH]c(=O)c23)C1 [Example 83, (S)-7-amino-3-(1-(but-2-ynoyl)pyrrolidin-3-yl)-1-(4-(2,6-difluorophenoxy)phenyl)-1,5-dihydro-4H-pyrrolo[2,3-d]pyridazin-4-one]",456 nM
7,"C=CC(=O)N1CCC[C@H](c2nn(-c3ccc(Oc4c(F)cccc4F)cc3)c3c(N)n[nH]c(=O)c23)C1 [Example 63, (S)-3-(1-acryloylpiperidin-3-yl)-7-amino-1-(4-(2,6-difluorophenoxy)phenyl)-1,5-dihydro-4H-pyrazolo[3,4-d]pyridazin-4-one]",189 nM
8,"C=CC(=O)N1CCC[C@@H](c2nn(-c3ccc(Oc4ccccc4)cc3)c3c(N)n[nH]c(=O)c23)C1 [Example 15, (R)-3-(1-acryloylpiperidin-3-yl)-7-amino-1-(4-phenoxyphenyl)-1,5-dihydro-4H-pyrazolo[3,4-d]pyridazin-4-one]",40 nM
9,"CC#CC(=O)N1CC[C@H](c2cn(-c3ccc(Oc4ccccc4)cc3)c3c(N)n[nH]c(=O)c23)C1 [Example 68, (R)-7-amino-3-(1-(but-2-ynoyl)pyrrolidin-3-yl)-1-(4-phenoxyphenyl)-1,5-dihydro-4H-pyrrolo [2,3-d]pyridazin-4-one]",146 nM
10,"C=CC(=O)N1CCC[C@@H](c2cn(-c3ccc(Oc4ccc(F)cc4)cc3)c3c(N)n[nH]c(=O)c23)C1 [Example 31, (S)-3-(1-acryloylpiperidin-3-yl)-7-amino-1-(4-(4-fluorophenoxy)phenyl)-1,5-dihydro-4H-pyrrolo [2,3-d]pyridazin-4-one]",167 nM
11,"C=CC(=O)N1CC[C@H](c2cn(-c3ccc(Oc4ccccc4F)cc3)c3c(N)n[nH]c(=O)c23)C1 [Example 23, (R)-3-(1-acryloylpyrrolidin-3-yl)-7-amino-1-(4-(2-fluorophenoxy)phenyl)-1,5-dihydro-4H-pyrrolo[2,3-d]pyridazin-4-one]",42 nM
12,"CC#CC(=O)N1CCC[C@H](c2cn(-c3ccc(Oc4ccccc4F)cc3)c3c(N)n[nH]c(=O)c23)C1 [Example 80, (R)-7-amino-3-(1-(but-2-ynoyl)piperidin-3-yl)-1-(4-(2-fluorophenoxy)phenyl)-1,5-dihydro-4H-pyrrolo[2,3-d]pyridazin-4-one]",450 nM
13,"C=CC(=O)N1CCC[C@H](c2cn(-c3ccc(Oc4ccccc4F)cc3)c3c(N)n[nH]c(=O)c23)C1 [Example 35, (R)-3-(1-acryloylpiperidin-3-yl)-7-amino-1-(4-(2-fluorophenoxy)phenyl)-1,5-dihydro-4H-pyrrolo [2,3-d]pyridazin-4-one]",33 nM

# Source: patent US10800785B2, “Substituted pyrrolo[2,3-d]pyridazin-4-ones and pyrazolo[3,4-d]pyridazin-4-ones as protein kinase inhibitors” (Shanghai Fochon Pharmaceutical Co., Ltd., priority 2016, dated 2020)
